Measured values as given in patent US20240150339A1, “Compounds and Their Use as PDE4 Activators” (Mironid Limited, priority 2021, published 2024).

target: T1, PDE4D5 (Homo sapiens, UniProt Q08499); experiment: PDE assay, activation of full-length human PDE4D5 long form ([3H]cAMP radio-assay); type: biochemical; conditions: 30 μM test compound; mean % increase in counts over basal activity
T1 construct: Using Full-Length Human PDE4 Isoforms: Long Forms PDE4D5, PDE4C3, PDE4B1 and Short Form PDE4B2; made in house; cytosol fraction of the cell lysate, not purified
T1 sequence (Q08499 1-745 isoform Q08499-6): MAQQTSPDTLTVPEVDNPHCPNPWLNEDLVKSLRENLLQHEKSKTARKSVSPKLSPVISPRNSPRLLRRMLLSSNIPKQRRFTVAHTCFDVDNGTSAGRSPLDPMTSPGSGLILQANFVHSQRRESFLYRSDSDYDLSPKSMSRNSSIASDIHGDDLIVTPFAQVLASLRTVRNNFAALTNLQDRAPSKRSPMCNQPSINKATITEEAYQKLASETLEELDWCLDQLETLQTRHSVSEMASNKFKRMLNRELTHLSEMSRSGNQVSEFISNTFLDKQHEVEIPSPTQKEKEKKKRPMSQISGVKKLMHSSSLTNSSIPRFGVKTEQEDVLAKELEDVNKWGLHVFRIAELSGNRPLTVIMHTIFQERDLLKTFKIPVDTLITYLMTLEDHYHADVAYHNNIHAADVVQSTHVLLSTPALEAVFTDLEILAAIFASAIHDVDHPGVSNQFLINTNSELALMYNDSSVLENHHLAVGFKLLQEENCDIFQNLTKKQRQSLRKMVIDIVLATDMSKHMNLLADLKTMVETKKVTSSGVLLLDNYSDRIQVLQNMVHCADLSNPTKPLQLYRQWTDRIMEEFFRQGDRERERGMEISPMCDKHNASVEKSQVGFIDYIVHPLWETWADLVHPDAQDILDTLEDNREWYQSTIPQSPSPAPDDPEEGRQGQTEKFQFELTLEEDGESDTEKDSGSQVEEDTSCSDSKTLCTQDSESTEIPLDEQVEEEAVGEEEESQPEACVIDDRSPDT
From the text: Experiment 1: Measurement of Modulation of Enzyme Activity by PDE4 Long Form Activators of the Present Invention Using Full-Length Human PDE4 Isoforms: Long Forms PDE4D5, PDE4C3, PDE4B1 and Short Form PDE4B2
(Marchmont, R. J. and Houslay, M. D. Biochem. J. 187: 381-92, 1980)
For transient transfection of exogenous PDE4 long isoforms, HEK 293 cells were transfected with pcDNA3.1 or pDEST™ PDE4 expression vectors using Lipofectamine LTX/Plus reagent (Invitrogen) as outlined by the manufacturer.
Where stable cell lines were generated the clonal isolates were expanded to obtain cell lines that stably expressed the full-length human PDE4 long isoforms and the full length human PDE4B2 short isoform. These were called the HEK-PDE4D5, HEK-PDE4B1 and HEK-PDE4B2 cell lines, respectively.
HEK-PDE4D5 cells were seeded out in 100 mm plates and incubated at 37° C. in an atmosphere of 5% CO2, 95% air. Cell lysates were prepared using KHEM buffer [50 mM KCl, 10 mM EGTA, 50 mM HEPES (pH 7.2), 1.92 mM MgCl2].
To prepare the cell lysates, the 100 mm plates containing the cells were placed on ice and washed with ice-cold PBS (phosphate buffered saline, pH 7.4). KHEM buffer (500 μl) was added to the cells. Cells were then scraped off the plate and triturated using a needle (BD Microlance™ 0.8, 40 mm). The lysed cells were then centrifuged at 2000 rpm for 10 minutes to remove cell debris and the supernatant (cell lysate containing recombinant PDE4D5) was transferred to a fresh tube and kept on ice.
The cell lysate containing recombinant PDE4D5 was transferred into a centrifuge tube and placed into an ultracentrifuge (BECKMAN COULTER) and spun at high speed (100,000 g) for 30 minutes at 4° C. The cytosol fraction was then collected and its protein amount determined using a BCA protein assay.
PDE assays were performed in thin walled V-bottomed 96-well plates. The assays were performed at a final concentration of 10 mM Tris/5 mM MgCl2 μlus PDE4D5 cell lysate cytosol fraction, containing over-expressed PDE4D5, with and without test compound. The lysate/compound mix were incubated together for 15 min at room temperature on an orbital shaker prior to addition of [^3H] cAMP (final concentration 1 μM [^3H] cAMP; Perkin Elmer) to a final volume of 50 μl per reaction. The reactions were then incubated for 10 minutes at 30° C., terminated by heating for 2 min at 95° C. and allowed to cool. Snake venom (12.5 μl of 1 mg/ml; Crotalus atrox, Sigma) was then added and the plates were agitated and incubated for a further 15 minutes at 30° C. Dowex ion exchange resin (Sigma, chloride form, 200-400 mesh; 200 μl; prepared as a 1:1 Dowex: water stock, thoroughly re-suspended and diluted 2:1 with ethanol) was then added to each well and the plates incubated for 15 min at room temperature on an orbital shaker ensuring sufficient agitation for resin suspension (550 RPM). The reaction mixture was then transferred to a 96 well filter plate (Millipore; […] pore size) and filtered into a receiving 96-well plate to remove the dowex suspension. 30 μL of the filtered solution was then transferred to the wells of an Opti-plate (Perkin Elmer) 96 well assay plate and 120 μl of Microscint 40 scintillation fluid was added. The plate was then placed on an orbital shaker for 10 min at high speed (900 RPM) to mix the sample with scintillation fluid prior to quantitation using a plate based scintillation counter (Top-Count).
The % increase in counts in the presence of test compound at a particular concentration indicates the % increase in enzyme activity at that concentration.

SMILES | activation at 30 µM
O=C(N[C@H]1CCCc2ccccc21)c1ccc2nc(-c3cccnc3)sc2c1 [Example 8, (S)-2-(pyridin-3-yl)-N-(1,2,3,4-tetrahydronaphthalen-1-yl)benzo[d]thiazole-6-carboxamide] | 82%
Cc1ccc(-c2nc3ccc(C(=O)NCc4ccccc4)cc3s2)cn1 [Example 10, N-benzyl-2-(6-methylpyridin-3-yl)benzo[d]thiazole-6-carboxamide] | 78%
Cc1ccc(-c2nc3ccc(C(=O)NCc4ccc(Cl)cc4)cc3s2)cn1 [Example 11, N-(4-chlorobenzyl)-2-(6-methylpyridin-3-yl)benzo[d]thiazole-6-carboxamide] | 104%
Cc1ccc(-c2nc3ccc(C(=O)NCc4ccc(F)cc4)cc3s2)cn1 [Example 12, N-(4-fluorobenzyl)-2-(6-methylpyridin-3-yl)benzo[d]thiazole-6-carboxamide] | 58%
COc1ccc(CNC(=O)c2ccc3nc(-c4ccc(C)nc4)sc3c2)cc1 [Example 13, N-(4-methoxybenzyl)-2-(6-methylpyridin-3-yl)benzo[d]thiazole-6-carboxamide] | 93%
Cc1ccc(-c2nc3ccc(C(=O)NCc4cccc(Cl)c4)cc3s2)cn1 [Example 14, N-(3-chlorobenzyl)-2-(6-methylpyridin-3-yl)benzo[d]thiazole-6-carboxamide] | 120%
Cc1ccc(-c2nc3ccc(C(=O)NCc4cccc(F)c4)cc3s2)cn1 [Example 15, N-(3-fluorobenzyl)-2-(6-methylpyridin-3-yl)benzo[d]thiazole-6-carboxamide] | 99%
COc1cccc(CNC(=O)c2ccc3nc(-c4ccc(C)nc4)sc3c2)c1 [Example 16, N-(3-methoxybenzyl)-2-(6-methylpyridin-3-yl)benzo[d]thiazole-6-carboxamide] | 64%
Cc1ccc(-c2nc3ccc(C(=O)N[C@H]4CCc5ccccc54)cc3s2)cn1 [Example 17, (S)-N-(2,3-dihydro-1H-inden-1-yl)-2-(6-methylpyridin-3-yl)benzo[d]thiazole-6-carboxamide] | 171%
Cc1ccc(-c2nc3ccc(C(=O)N[C@@H]4CCc5ccccc54)cc3s2)cn1 [Example 18, (R)-N-(2,3-dihydro-1H-inden-1-yl)-2-(6-methylpyridin-3-yl)benzo[d]thiazole-6-carboxamide] | 142%
Cc1ccc(-c2nc3ccc(C(=O)N[C@H]4c5ccccc5C[C@H]4O)cc3s2)cn1 [Example 19, N-((1S,2R)-2-hydroxy-2,3-dihydro-1H-inden-1-yl)-2-(6-methylpyridin-3-yl)benzo[d]thiazole-6-carboxamide] | 73%
Cc1ccc(-c2nc3ccc(C(=O)N[C@@H]4c5ccccc5C[C@@H]4O)cc3s2)cn1 [Example 20, N-((1R,2S)-2-hydroxy-2,3-dihydro-1H-inden-1-yl)-2-(6-methylpyridin-3-yl)benzo[d]thiazole-6-carboxamide] | 105%
Cc1ccc(-c2nc3ccc(C(=O)N[C@@H]4c5ccccc5C[C@H]4O)cc3s2)cn1 [Example 21, N-((1R,2R)-2-hydroxy-2,3-dihydro-1H-inden-1-yl)-2-(6-methylpyridin-3-yl)benzo[d]thiazole-6-carboxamide] | 193%
Cc1ccc(-c2nc3ccc(C(=O)NC4CCCC4)cc3s2)cn1 [Example 22, N-cyclopentyl-2-(6-methylpyridin-3-yl)benzo[d]thiazole-6-carboxamide] | 39%
Cc1ccc(-c2nc3ccc(C(=O)N[C@H]4CCCc5ccccc54)cc3s2)cn1 [Example 23, (S)-2-(6-methylpyridin-3-yl)-N-(1,2,3,4-tetrahydronaphthalen-1-yl)benzo[d]thiazole-6-carboxamide] | 94%

test system: m-IMCD3 cells; experiment: Inhibition of PGE2-stimulated in vitro cyst formation in 3D culture of m-IMCD3 cells; type: cell-based, mouse; conditions: Mus musculus, mIMCD3, 144 h; 10 μM test compound; mean cyst area (%) compared to 100% for (DMSO + PGE2) and 0% for DMSO control; 100 nM PGE2; 6 days; read-out: % Cyst area after incubation with 10 μM test compound
Procedure: HEK 293 and MDCK cells (Public Health England, Cell Culture Collections) were maintained in Dulbecco's Modified Eagle's Medium (DMEM) supplemented with 10% (v/v) fetal bovine serum (FBS) (Seralab), 2 mM L-glutamine and 100 U/ml penicillin streptomycin cocktail (ThermoFisher); termed complete media. Clonal HEK 293 cell lines were maintained in complete media supplemented with 0.6 mg/mL G418 (Enzo Life Sciences). Mouse inner medullary collecting duct (m-IMCD3) cells [American Type Culture Collection (ATCC)] were maintained in media consisting of DMEM/Hams F-12 50/50 Mix (DMEM F12; Corning) supplemented with penicillin streptomycin cocktail (100 U/ml) and FBS (10% v/v) (DMEM F12-10% FBS).
The mouse Inner Medullary Collecting Duct cell line (m-IMCD3) spontaneously forms cystic spheroids in 3D culture with a Type 1 collagen/Matrigel extracellular matrix. This process can be stimulated with agents which raise intracellular cAMP, such as PGE2, and is used as an in vitro model for the formation of cystic structures in the kidneys of patients with ADPKD.
Rat Collagen I (Fisher Scientific) is prepared on ice by neutralising with 1M NaOH and diluting with a 2×volume of DMEM/F12+10% FBS for coating plate (coating mix) and a 2.2 volume of DMEM/F12+10% FBS for cell plating (plating mix). This is mixed 1:1.1 with ice cold Matrigel (Corning) for coating plates (coating mix), and 1:0.95 with Matrigel for cell plating (plating mix).
The assay is conducted in the wells of a 96-well plate culture dish using a total volume of 130 μl of collagen/Matrigel/DMEM F12-10% FBS suspension in growth media for each matrix plug per individual well. Initially, 30 μl of collagen/Matrigel/DMEM F12-10% FBS (coating mix) is added into the well of a 96 well plate and the collagen is set to a gel by incubating at 37° C. for at least 15 minutes. A second layer of 100 μl collagen/Matrigel suspension (plating mix) containing m-IMCD3 cells (2.75×10^6 m-IMCD3 cells per 96-well plate) is layered over the coating mix and the collagen/Matrigel/cell mix again set to a gel by incubating at 37° C. Cell cultures are maintained at 37° C. in an atmosphere of 5% CO2, 95% air.
Between 18 and 24h after plating, test compound(s) as DMSO stock solutions [0.1% (v/v) final DMSO concentration] and PGE2 (100 nM final concentration) in DMEM F12-10% FBS are added in quadruplicate wells per condition. Media, togetherwith the test compound and PGE2 are replenished after 2 or 3 days. After 6 days of culture z stack images of the wells are captured using the Nikon Eclipse Ti2-E microscope. Nikon General Analysis software is used to measure the following parameters in each well: the mean cyst area, the number of cysts, and the total cyst area.
PDE4 long form activators inhibited in vitro cyst formation in m-IMCD3 cells. Data are shown in FIG. 2 and Table 5 as mean cyst area (%), compared to 100% for (DMSO+PGE2) and 0% for DMSO control.

SMILES | activity at 10 µM
CN(C(=O)c1ccc2nc(C3CCNCC3)sc2c1)C1CCCC1 [Example 271, N-cyclopentyl-N-methyl-2-(piperidin-4-yl)benzo[d]thiazole-6-carboxamide] | 27%
CN1CCC(c2nc3ccc(C(=O)N[C@@H]4CCC[C@H]4O)cc3s2)CC1 [Example 274, N-[(1R,2R)-2-hydroxycyclopentyl]-2-(1-methylpiperidin-4-yl)benzo[d]thiazole-6-carboxamide] | 16%
CCN1CCC(c2nc3ccc(C(=O)NCc4ccncc4)cc3s2)CC1 [Example 275, 2-(1-ethylpiperidin-4-yl)-N-(pyridin-4-ylmethyl)benzo[d]thiazole-6-carboxamide] | -2%
CC(C)OCCNC(=O)c1ccc2nc(N3C4CCC3CNC4)sc2c1 [Example 278, 2-(3,8-diazabicyclo[3.2.1]octan-8-yl)-N-(2-isopropoxyethyl)benzo[d]thiazole-6-carboxamide] | 18%
CCN1CC(c2nc3ccc(C(=O)NC4CCCC4)cc3s2)C1 [Example 281, N-cyclopentyl-2-(1-ethylazetidin-3-yl)benzo[d]thiazole-6-carboxamide] | 10%
O=C(NC1CCCC1)c1ccc2sc(C3CCNCC3)nc2c1 [Example 283, N-cyclopentyl-2-(piperidin-4-yl)benzo[d]thiazole-5-carboxamide] | 14%
CN1CCC(c2nc3ccc(S(=O)(=O)NC4CCCC4)cc3s2)CC1 [Example 288, N-cyclopentyl-2-(1-methylpiperidin-4-yl)benzo[d]thiazole-6-sulfonamide] | 11%
